Laboratory results published in US12522596B2, “Compounds as GLP-1R agonists” (Terns Pharmaceuticals, Inc., priority 2021, dated 2026).
Like-named read-outs stand apart in the source and are kept apart here.

Experiment: Pharmacokinetics in hGLP-1R mice after oral dosing
Format: in vivo, male C57BL/6J hGLP-1R mouse
Details: male, C57BL/6J hGLP-1R, mouse, plasma, po; for concentration at 120 min: hGLP-1R mouse plasma collected at 120 min (IPGTT cohort); for MRT inf: read-out: MRT0-inf; for MRT last: read-out: MRT0-last; for AUC0-inf: read-out: AUC0-inf
Protocol: IPGTT (120 min)—PK bleeding: 40 μL blood samples (all treatment groups) were collected from mice under the jaw at IPGTT-120 min after blood glucose measurement into pre-chilled EDTA-2K tubes. Blood samples were processed for plasma by centrifugation at 4° C., 3200×g for 10 min. 15 μL plasma was stored at −80° C. for PK analysis. From 4 mice in Group 7 of the PD cohort, whole brain was collected after blood is harvested at 120 min post dose, rinsed with saline and patted dry and placed into a pre-weighed tube and stored at −80° C. collected for PK analysis.
PK bleeding group design is described in Table 9.
PK bleeding: 30 μL blood was collected at 0.25, 0.5, 1, 2, 4, and 8 h. Blood samples were processed for plasma by centrifugation at 4° C., 3200×g for 10 min. 12 μL plasma was collected at −80° C. for further analysis. From 3 mice in Group 7 of the PK cohort, whole brain was collected after blood is harvested at 8 hr post dose, rinsed with saline and patted dry and placed into a pre-weighed tube and stored at −80° C. collected for PK analysis.
For plasma: An aliquot of 3 μL sample was protein precipitated with 60 μL internal standard (100 ng/mL Labetalol & 100 ng/ml Dexamethasone & 100 ng/ml Tolbutamide & 100 ng/mL Verapamil & 100 ng/ml Glyburide & 100 ng/ml Celecoxib in ACN) and then the mixture was vortex-mixed for 10 min at 800 rpm and centrifuged for 15 min at 3220×g, 4° C.
The linear/log trapezoidal rule was applied in obtaining the PK parameters. Individual plasma concentration values that were below the lower limit of quantitation (LOQ) were excluded from the PK parameter calculation. The nominal dose levels and nominal sampling times were used in the calculation of all pharmacokinetic parameters.

[1] = 0.3 mg/kg, hGLP-1R mouse plasma, PO 0.3 mg/kg, read-out: Mean Concentration
[2] = 0.3 mg/kg, hGLP-1R mouse plasma, PO 0.3 mg/kg, individual animals, read-out: Concentration
[3] = 0.3 mg/kg, hGLP-1R mouse plasma, PO 0.3 mg/kg, individual mice
[4] = 0.3 mg/kg, hGLP-1R mouse plasma, PO 0.3 mg/kg, mean
[5] = 1 mg/kg, hGLP-1R mouse plasma, PO 1 mg/kg, individual animals, read-out: Concentration
[6] = 1 mg/kg, hGLP-1R mouse plasma, PO 1 mg/kg, read-out: Mean Concentration
[7] = 1 mg/kg, hGLP-1R mouse plasma, PO 1 mg/kg, individual mice
[8] = 1 mg/kg, hGLP-1R mouse plasma, PO 1 mg/kg, mean

`N#Cc1ccc(COc2cccc(C3CCN(Cc4nc5ccc(C(=O)O)cc5n4C[C@@H]4CCO4)CC3)n2)c(F)c1` [Reference Compound A, reference compound] gave a concentration at 120 min (0.3 mg/kg, PO 0.3 mg/kg, read-out: Mean Concentration) of 7.16 ng/mL, a concentration at 0.25 h [1] of 24.9 ng/mL and a concentration at 0.5 h [2] of 19.6 ng/mL. It also gave a concentration at 0.5 h [1] of 17.3 ng/mL, a concentration at 1 h [1] of 16 ng/mL and a concentration at 2 h (0.3 mg/kg, hGLP-1R mouse plasma, PO 0.3 mg/kg) of 3.37 ng/mL. For the same compound, the concentration at 4 h [2] was less than 1 ng/mL, the MRT inf [3] was 56.6 min and the MRT last [3] was 48.2 min. The half-life (0.3 mg/kg, hGLP-1R mouse plasma, PO 0.3 mg/kg, individual mice, read-out: T1/2 (converted)) was 28.9 min, the Tmax (0.3 mg/kg, hGLP-1R mouse plasma, PO 0.3 mg/kg, individual mice, read-out: Tmax) was 30 min and the AUC0-inf [4] was 27.6 ng·h/mL. For the same compound, the AUC(0-t) (0.3 mg/kg, hGLP-1R mouse plasma, PO 0.3 mg/kg, mean, read-out: AUC0-last) was 24.5 ng·h/mL, the Cmax (0.3 mg/kg, hGLP-1R mouse plasma, PO 0.3 mg/kg, mean, read-out: Cmax) was 27 ng/mL and the MRT inf [4] was 62.4 min. It also gave an MRT last [4] of 49.2 min, a half-life (0.3 mg/kg, hGLP-1R mouse plasma, PO 0.3 mg/kg, mean, read-out: T1/2 (converted)) of 36.2 min and a Tmax (0.3 mg/kg, hGLP-1R mouse plasma, PO 0.3 mg/kg, mean, read-out: Tmax) of 25 min. It also gave an AUC(0-t) (1 mg/kg, hGLP-1R mice, total, PO 1.0 mg/kg, read-out: AUClast Mean) of 85.5 ng·h/mL, a Cmax (1 mg/kg, hGLP-1R mice, total, PO 1.0 mg/kg, read-out: Cmax Mean) of 49.7 ng/mL and a Tmax (1 mg/kg, hGLP-1R mice, total, PO 1.0 mg/kg, read-out: Tmax Median) of 30 min. The concentration at 120 min (1 mg/kg, PO 1 mg/kg, read-out: Mean Concentration) was 21.4 ng/mL, the concentration at 0.25 h [5] was 43.5 ng/mL and the concentration at 0.25 h [6] was 35.7 ng/mL. The concentration at 0.5 h [5] was 62.8 ng/mL, the concentration at 0.5 h [6] was 48.1 ng/mL and the concentration at 1 h [6] was 39.5 ng/mL. For the same compound, the concentration at 2 h (1 mg/kg, hGLP-1R mouse plasma, PO 1 mg/kg) was 14.5 ng/mL, the concentration at 4 h [5] was 3.59 ng/mL and the concentration at 4 h [6] was 3.4 ng/mL. For the same compound, the concentration at 8 h (1 mg/kg, hGLP-1R mouse plasma, PO 1 mg/kg, 8 h, read-out: Mean Concentration) was 2.42 ng/mL, the AUC0-inf [7] was 105 ng·h/mL and the AUC(0-t) (1 mg/kg, hGLP-1R mouse plasma, PO 1 mg/kg, individual mice, read-out: AUC0-last) was 101 ng·h/mL. For the same compound, the Cmax (1 mg/kg, hGLP-1R mouse plasma, PO 1 mg/kg, individual mice, read-out: Cmax) was 62.8 ng/mL, the MRT last [7] was 78 min and the Tmax (1 mg/kg, hGLP-1R mouse plasma, PO 1 mg/kg, individual mice, read-out: Tmax) was 30 min. For the same compound, the AUC0-inf [8] was 93.8 ng·h/mL, the AUC(0-t) (1 mg/kg, hGLP-1R mouse plasma, PO 1 mg/kg, mean, read-out: AUC0-last) was 85.5 ng·h/mL and the Cmax (1 mg/kg, hGLP-1R mouse plasma, PO 1 mg/kg, mean, read-out: Cmax) was 49.7 ng/mL. It also gave an MRT inf [8] of 161 min, an MRT last [8] of 109 min and a half-life (1 mg/kg, hGLP-1R mouse plasma, PO 1 mg/kg, mean, read-out: T1/2 (converted)) of 119 min. The Tmax (1 mg/kg, hGLP-1R mouse plasma, PO 1 mg/kg, mean, read-out: Tmax) was 40 min, the Tmax (3 mg/kg, hGLP-1R mice, oral, across the doses tested (0.3, 1 and, for Compound 2, 3 mg/kg), read-out: median Tmax) was 30 min and the half-life (hGLP-1R male mice, oral, across doses, read-out: terminal T1/2) was less than 120 min.
